Measured values: US20160242416A1, “FUNGICIDAL ISOXAZOLINE CARBINOLS” (E I DU PONT DE NEMOURS AND COMPANY, priority 2015, published 2016)

How the values were obtained:
Botrytis cinerea = assay: Test B: gray mold, preventive spray on tomato seedlings; conditions: 10 ppm; gray mold on tomato; 100 = 100% disease control, 0 = no control
Excerpt: (§1) General protocol for preparing test solutions for Tests A-G: the test compounds were first dissolved in acetone in an amount equal to 3% of the final volume and then suspended at the desired concentration (in ppm) in acetone and purified water (50/50 mix by volume) containing 250 ppm of the surfactant PEG400 (polyhydric alcohol esters). The resulting test suspensions were then used in Tests A-G. Compounds were sprayed at a concentration of 50 ppm (*) or 10 ppm to the point of run-off on the test plants, the equivalent of a rate of 200 g/ha or 40 g/ha, respectively.
The test solution was sprayed to the point of run-off on tomato seedlings. The following day the seedlings were inoculated with a spore suspension of Botrytis cinerea (the causal agent of gray mold on many crops) and incubated in a saturated atmosphere at 20° C. for 48 h, and moved to a growth chamber at 27° C. for 2 days, after which time visual disease ratings were made.
(§2) Compounds with an asterisks (*) were applied at a concentration of 50 ppm, otherwise test solutions were applied at 10 ppm.

Stagonospora nodorum = assay: Test D: wheat glume blotch, preventive spray on wheat seedlings; conditions: 10 ppm; wheat glume blotch; 100 = 100% disease control, 0 = no control
Excerpt: as §1
The test solution was sprayed to the point of run-off on wheat seedlings. The following day the seedlings were inoculated with a spore suspension of Stagonospora nodorum (also known as Septoria nodorum; the causal agent of wheat glume blotch) and incubated in a saturated atmosphere at 20° C. for 48 h, and then moved to a growth chamber at 20° C. for 6 days, after which time visual disease ratings were made.
as §2

Zymoseptoria tritici = assay: Test E: wheat leaf blotch, preventive spray on wheat seedlings; conditions: 10 ppm; wheat leaf blotch; 100 = 100% disease control, 0 = no control
Excerpt: as §1
The test solution was sprayed to the point of run-off on wheat seedlings. The following day the seedlings were inoculated with a spore suspension of Zymoseptoria tritici (the causal agent of wheat leaf blotch) and incubated in a saturated atmosphere at 24° C. for 48 h, and then moved to a growth chamber at 20° C. for 17 days, after which time visual disease ratings were made.
as §2

[1] = system: Erysiphe graminis f sp. tritici; assay: Test G: wheat powdery mildew, preventive spray on wheat seedlings; conditions: 10 ppm; wheat powdery mildew; 100 = 100% disease control, 0 = no control
[2] = system: Puccinia recondita f sp. tritici; assay: Test F: wheat leaf rust, preventive spray on wheat seedlings; conditions: 10 ppm; wheat leaf rust; 100 = 100% disease control, 0 = no control

Structure (SMILES)	Test B rating (% disease control) (Botrytis cinerea)	Test D rating (% disease control) (Stagonospora nodorum)	Test E rating (% disease control) (Zymoseptoria tritici)	Test G rating (% disease control) [1]	Test F rating (% disease control) [2]
CC(C)(C)C(O)(Cn1cncn1)C1=NOC(CCc2ccc(C(F)(F)F)cc2)C1 (single isomer, unassigned) [Compound 14]	0%	88%	4%	99%	100%
CC(C)(C)C(O)(Cn1cncn1)C1=NOC(CCc2ccc(Cl)cc2)C1 (single isomer, unassigned) [Compound 15]	100%	100%	19%	100%	100%
CC(C)(C)C(O)(Cn1cncn1)C1=NOC(CCc2ccc(Cl)cc2)C1 (single isomer, unassigned) [Compound 16]	32%	100%	8%	99%	100%
CCC(C)(C)C(O)(Cn1cncn1)C1=NOC(Cc2ccc(Cl)cc2)C1 (single isomer, unassigned) [Compound 17]	51%	98%	7%	100%	100%
CCC(C)(C)C(O)(Cn1cncn1)C1=NOC(Cc2ccc(Cl)cc2)C1 (single isomer, unassigned) [Compound 18]	0%	87%	6%	99%	100%
CCC(C)(C)C(O)(Cn1cncn1)C1=NOC(Cc2ccc(C(F)(F)F)cc2)C1 (single isomer, unassigned) [Compound 19]	0%	89%	10%	100%	100%
CCC(C)(C)C(O)(Cn1cncn1)C1=NOC(Cc2ccc(C(F)(F)F)cc2)C1 (single isomer, unassigned) [Compound 20]	0%	65%	98%	99%	100%
CC(C)(C)C(O)(Cn1cncn1)C1=NOC(COc2ccc(F)cc2F)C1 (single isomer, unassigned) [Compound 21]	9%	100%	0%	99%	100%
CC(C)(C)C(O)(Cn1cncn1)C1=NOC(Cc2ccc(Cl)c(Cl)c2)C1 (single isomer, unassigned) [Compound 22]	0%	96%	29%	99%	100%
CC(C)(C)C(O)(Cn1cncn1)C1=NOC(Cc2ccc(Cl)c(Cl)c2)C1 (single isomer, unassigned) [Compound 23]	0%	97%	89%	100%	100%
CC(C)(C)C(O)(Cn1cncn1)C1=NOC(COc2ccc(OC(F)(F)F)cc2)C1 (single isomer, unassigned) [Compound 24]	37%	99%	0%	100%	100%
CC(C)(C)C(O)(Cn1cncn1)C1=NOC(COc2ccc(OC(F)(F)F)cc2)C1 (single isomer, unassigned) [Compound 25]	0%	59%	0%	100%	99%
CC(C)(C)C(O)(Cn1cncn1)C1=NOC(CSc2ccc(Cl)cc2)C1 (single isomer, unassigned) [Compound 26]	92%	70%	0%	89%	74%
CC(C)(C)C(O)(Cn1cncn1)C1=NOC(CSc2ccc(Cl)cc2)C1 (single isomer, unassigned) [Compound 27]	51%	59%	0%	89%	68%
CC(C)(C)C(O)(Cn1cncn1)C1=NOC(COc2ccc(-n3cccn3)cc2)C1 (single isomer, unassigned) [Compound 28]	24%	39%	0%	99%	0%
CC(C)(C)C(O)(Cn1cncn1)C1=NOC(COc2ccc(-n3cccn3)cc2)C1 (single isomer, unassigned) [Compound 29]	0%	49%	0%	99%	0%
OC(Cn1cncn1)(C1=NOC(Cn2cc(Br)cn2)C1)c1ccc(Cl)cc1 (single isomer, unassigned) [Compound 37]	0%	0%	0%	99%	94%
OC(Cn1cncn1)(C1=NOC(Cn2cc(Br)cn2)C1)c1ccc(Cl)cc1 (single isomer, unassigned) [Compound 38]	0%	0%	1%	72%	55%
OC(Cn1cncn1)(C1=NOC(c2ccc(Cl)cc2)C1)C12CC3CC(CC(C3)C1)C2 (single isomer, unassigned) [Compound 39]	0%	87%	18%	73%	0%
OC(Cn1cncn1)(C1=NOC(c2ccc(Cl)cc2)C1)C12CC3CC(CC(C3)C1)C2 (single isomer, unassigned) [Compound 40]	0%	51%	0%	48%	55%
CC(C)(C)C(O)(Cn1cncn1)C1=NOC(Cn2cc(Br)cn2)C1 (single isomer, unassigned) [Compound 41]	0%	0%	0%	90%	41%
CC(C)(C)C(O)(Cn1cncn1)C1=NOC(Cn2cc(Br)cn2)C1 (single isomer, unassigned) [Compound 42]	0%	42%	0%	0%	9%
